{"source": "patent US20140066363A1", "about": "“CARBOHYDRATE NANOPARTICLES FOR PROLONGED EFFICACY OF ANTIMICROBIAL PEPTIDE” (priority 2011, published 2014)", "type_in_all_cases": "cell-based, Listeria monocytogenes", "key": {"L. monocytogenes [1]": {"tested_on": "L. monocytogenes", "assay": "Control storage of emulsions in regular test tubes at 4° C. with bioassay", "conditions": "150 μg/mL nisin", "experimental": "The label “free nisin” denotes the preparation containing nisin only in buffer. The total initial concentration of nisin was 150 μg/mL for each preparation. One portion of each preparation was applied to the model system (labeled “Model”), and another portion was stored in a regular test tube as the control (labeled “Control”). Both model and control groups were aliquoted after various storage periods for the activity tests.\nNisin activity, either for those freshly prepared or stored in BHI agar deep-well, was determined as described by Pongtharangkul and Demirci (2004) with modifications. Agar diffusion bioassay was used to determine the nisin activity against L. monocytogenes. BHI (3.7%) solution containing 0.75% agar and 1.0% Tween 20 was prepared and autoclaved. After cooling to approximately 40° C., the solution was inoculated by a 1.0% volume of BHI broth containing L. monocytogenes V7 (ca. 108 colony-forming units/mL). To each square Petri-dish plate (10×10 cm), a 32 mL inoculated BHI agar solution was added and allowed to solidify. Thereafter, holes with 7.0 mm diameter were made using a cork borer, and 100 μL of each nisin preparation was added to each agar well. The Petri-dish plates were then incubated for 24 h at room temperature, and the size of inhibitory ring was measured to indicate the activity against L. monocytogenes. […]"}, "L. monocytogenes [2]": {"tested_on": "L. monocytogenes", "assay": "BHI-agar deep-well model of nisin depletion (21 days, 4° C.) with bioassay, PG derivatives", "procedure": "Nisin activity, either for those freshly prepared or stored in BHI agar deep-well, was determined as described by Pongtharangkul and Demirci (2004) with modifications. Agar diffusion bioassay was used to determine the nisin activity against L. monocytogenes. BHI (3.7%) solution containing 0.75% agar and 1.0% Tween 20 was prepared and autoclaved. After cooling to approximately 40° C., the solution was inoculated by a 1.0% volume of BHI broth containing L. monocytogenes V7 (ca. 108 colony-forming units/mL). To each square Petri-dish plate (10×10 cm), a 32 mL inoculated BHI agar solution was added and allowed to solidify. Thereafter, holes with 7.0 mm diameter were made using a cork borer, and 100 μL of each nisin preparation was added to each agar well. The Petri-dish plates were then incubated for 24 h at room temperature, and the size of inhibitory ring was measured to indicate the activity against L. monocytogenes.\nIn this study, a BHI-agar deep-well model was established to mimic the depletion of nisin at nutrient-containing surfaces, such as a food surface (FIG. 1). BHI is a nutritious culture medium that supplies protein and other nutrients necessary to support the growth of fastidious and nonfastidious microorganisms. It contains infusions from calf brains and beef hearts, proteose and peptone, dextrose, sodium chloride, and disodium phosphate. […] Therefore, BHI is an ideal nutrient model for studying nisin depletion and retention. Our experiments have consistently shown that BHI-containing broths and gels lead to rapid depletion of peptide activity. In a deep well filled with a liquid peptide preparation, peptide molecules diffuse from the solution into the gel (causing diffusion-based depletion), and BHI components diffuse from the agar gel into the solution (causing irreversible peptide adsorption or degradation).\nFor continuous sampling at various stages of storage, nisin preparations were added to the deep wells of the BHI-agar gel. For the deep-well storage, the inner surface of a well was used to mimic the outer surface of solid food. […]"}, "L. monocytogenes V7": {"tested_on": "L. monocytogenes V7", "assay": "BHI-agar deep-well model of nisin depletion (50 days, 4° C.) with bioassay, emulsions", "procedure": "To prepare emulsions, PG-OS and WCS-OS were each dissolved in sodium acetate buffer (50 mM, pH 5.5, 22° C.) to form a solution of 10 mg/mL. As a reference, 1.0 mg/mL of Tween 20 solution was also prepared using the sodium acetate buffer. Vegetable oil was added to each emulsifier solution, at twice (for PG-OS and WCS-OS) or 20 times (Tween 20) the weight of the emulsifier. […] Each mixture was further diluted with the same volume of sodium acetate buffer. […] These emulsions were sterilized using a boiling-water bath for 3 min before further tests. Nisin activity, either for those freshly prepared or stored in BHI agar deep-well, was determined as described by Pongtharangkul and […] (2004) with modifications. Agar diffusion bioassay was used to determine the nisin activity against L. monocytogenes. […] After cooling to approximately 40° C., the solution was inoculated by a 1.0% volume of BHI broth containing L. monocytogenes V7 (ca. 108 colony-forming units/mL). To each square Petri-dish plate (10×10 cm), a 32 mL inoculated BHI agar solution was added and allowed to solidify. […] The Petri-dish plates were then incubated for 24 h at room temperature, and the size of inhibitory ring was measured to indicate the activity against L. monocytogenes. […] The hot solution (225 mL) was poured into a 600-mL beaker to a height of 40 mm. After gel solidification, four wells (from gel surface to bottom) were made in each beaker using a 7.0-mm borer."}, "[3]": {"conditions": "initial nisin 150 μg/mL, calculated from ring size by standard curve"}}, "data": [{"substance": "nisin [free nisin]", "values": [{"measurement": "change of inhibitory ring size during storage, control groups", "setting": "L. monocytogenes [1]", "value": "did not show an appreciable change"}, {"measurement": "retained activity at day 5", "setting": "L. monocytogenes [2]; deep wells in BHI-agar gel, summary", "value": "negligible"}, {"measurement": "residual nisin activity after 7 days", "setting": "L. monocytogenes [2]; deep-well model, 4° C., 100 μg/mL nisin", "value": "negligible"}, {"measurement": "nisin activity at 0 day", "setting": "L. monocytogenes [2]; deep-well model, initial test, 100 μg/mL nisin", "value": "highest nisin activity"}, {"measurement": "size of inhibitory ring after 40 days, model groups", "setting": "L. monocytogenes V7; deep-well model, 4° C., 150 μg/mL nisin", "value": "undetectable"}, {"measurement": "available nisin after 5 days", "setting": "L. monocytogenes V7; [3]", "value": 10.2, "unit": "µg/mL"}, {"measurement": "available nisin after 20 days", "setting": "L. monocytogenes V7; [3]", "value": "< 1", "unit": "µg/mL"}, {"measurement": "available nisin after 40 days", "setting": "L. monocytogenes V7; [3]", "value": "negligible"}]}]}
